Here are results for 5 compounds from ChEMBL document CHEMBL1157248, “Polar steroidal compounds from the far eastern starfish Henricia leviuscula” (J Nat Prod, 2006).

What all share (format): cell-based, Erythrocyte
Data set [1] can be described thus: Toxicity in mouse erythrocytes assessed as hemolysis.
Data set [2] is described as follows: Toxicity in mouse erythrocytes assessed as hemolysis at 0.1 mM during 5 mins.
A short description of data set [3]: Toxicity in mouse erythrocytes assessed as hemolysis at 0.08 mM during 5 mins. Conditions: read-out: Activity; call rule not given here.

In the case of `CO[C@H]1[C@H](O[C@H]2CC[C@@]3(C)[C@H]([C@H]2O)[C@H](O)C[C@]2(O)[C@@H]3CC[C@]3(C)[C@@H]([C@H](C)CC[C@H](O[C@@H]4O[C@@H](CO)[C@H](O)[C@H]4O)C(C)C)C[C@H](O)[C@H]32)OC[C@@H](OC)[C@@H]1O` [LAEVIUSCOLOSIDE G], the HC50 in data set [1] came out at 130 µM. In the case of `C[C@H](CC[C@@H](O)C(C)(C)O)[C@H]1C[C@@H](O)[C@@H]2[C@]1(C)CC[C@@H]1[C@@]3(C)CC[C@H](O)[C@H](O)[C@@H]3[C@H](O)C[C@]12O`, the concentration for 50% haemolysis (HC50) in data set [1] worked out at 210 µM. Besides, the Activity entry in data set [2] (erythrocyte, 5 min, 100 µM) is “Not Active”. As for `CO[C@@H]1[C@@H](OC)[C@H](O[C@@H]2C=C3[C@H](O)C[C@@]4(O)[C@@H]5[C@@H](O)[C@H](O)[C@H]([C@H](C)/C=C/[C@@H](C)[C@H](C)CO)[C@@]5(C)CC[C@@H]4[C@@]3(C)CC2)OC[C@H]1O` [HENRICIOSIDE H2], in data set [1], the HC50 amounted to 120 µM. For the same compound, the hemolysis at 5 min, 80 µM in data set [3] came out at 70%. In the same order, the values of `CO[C@@H]1[C@@H](OC)[C@H](O[C@@H]2C=C3[C@H](O)C[C@@]4(O)[C@@H]5[C@@H](O)[C@H](O)[C@H]([C@H](C)/C=C/C(C)CCO)[C@@]5(C)CC[C@@H]4[C@@]3(C)CC2)OC[C@H]1O` (some centres undefined) are 80 µM and 100%. Take `CC(C)[C@@H](O)CC[C@@H](C)[C@H]1C[C@@H](O)[C@@H]2[C@]1(C)CC[C@@H]1[C@@]3(C)CC[C@H](O)[C@H](O)[C@@H]3[C@H](O)C[C@]12O`: the HC50 in data set [1] was found to be 53 µM. Moreover, the hemolysis at 5 min, 100 µM in data set [2] (mouse erythrocytes, read-out: Activity) was 100%.

Usually HC50 stands for the concentration giving 50% haemolysis.
